Reference: patent US8563254B2, “Biomarkers of tumor pharmacodynamic response” (Novartis AG, priority 2009, dated 2013)

How the values were obtained:
A375 cells = test: Quantitative RT-PCR of IL-8 mRNA, A375; format: cell-based, human; conditions: A375, 0.3 μM, 16 hr
Method: Total cellular RNA was extracted from the GTL-16 and A375 cell lines using RNeasy mini kit (Qiagen, Inc., Valencia, Calif., USA). Total RNA quantitation was carried out using a RiboGreen assay (Invitrogen Corporation, Carlsbad, Calif., USA). 1 μg of total RNA was reverse transcribed using AMV reverse transcriptase (Reverse Transcription Kit, Promega U.S., Madison, Wis., USA). A 20 μl reaction cocktail was prepared as follows; 1 μg total RNA in 10 μl of RNase, DNase-free H2O, 4 μl of 25 mM MgCl2, 2 μl of 10× reverse transcriptase buffer, 2 μl of 10 mM dNTP's, 1 μl of 500 μg ml^−1 random hexamers, 1.5 μl of 10 μl ml^−1, and 40 U μl^−1 0.5 μl of recombinant RNase Inhibitor. Real time PCR was performed using a 7900HT fast real-time PCR system (Applied Biosystems, Foster City, Calif., USA) using the Power SYBR Green PCR master mix (Applied Biosystems). The primers for IL-8 and GAPDH were: IL-8 sense: 5′-[…]-3′ (SEQ ID NO:3) and IL-8 antisense:
5′-[…]-3′ (SEQ ID NO:4); and GAPDH sense:
5′-[…]-3′ (SEQ ID NO:5), and GAPDH antisense;
5′-[…]-3′. (SEQ ID NO:6) The amplification process involved an initial 5 min denaturing step at 95° C. This was followed by annealing reactions for both IL-8 and GAPDH, of 45 s at 95° C. with 230 s at 68° C. for 34 cycles and 1 min at 95° C. with 1 min at 60° C. and 1 min 72° C. for 30 cycles, respectively. The final extension was 10 min at 72° C. […]

GTL-16 cells = test: Western blot of nuclear protein fractions, GTL-16; format: cell-based, human; conditions: GTL-16, 0.3 μM, 16 hr and 24 hr, normalized to total protein
Method: Total protein lysates were prepared from the GTL-16 and A375 cells with RIPA lysis buffer (Upstate, Millipore Corporation, Charlottesville, Va., USA). Cells were washed with PBS and 500 ul of ice-cold RIPA buffer, containing protease inhibitor cocktail tablet (Roche Diagnostic GmbH, Mannheim, Germany) and phosphatase inhibitors (Sigma-Aldrich, Inc., St. Louis, Mo., USA), was added to each plate on ice. After 15 min the cells were scrapped from the plate surface and spun at 16000 RPM for 10 min at 4° C. The supernatant was collected and frozen at −80° C. Nuclear protein fractions were prepared by the NE-PER nuclear and cytoplasmic extraction kit (Pierce Biotechnology, Rockford, Ill., USA). Proteins were quantified by bicinchoninic acid assay (Pierce Biotechnology, Rockford, Ill., USA) for Western blotting.
Primary antibodies specific for NFκB p65, cREL, p-ERK1/2, p-c-jun, ERK1 and Jun were purchased from Santa Cruz Biotechnology (Santa Cruz Biotechnology, Inc., Santa Cruz, Calif., USA) with the exception of Hsp70 and TBP (nuclear loading control), which were obtained from StressGen (StressGen, Assay Designs, Inc., Aim Arbor, Mich., USA) and Abcam (Abcam Inc., Cambridge, Mass., USA), respectively. […]

[1] = test system: GTL-16 tumor-bearing mice; test: Hsp70 expression in GTL-16 xenograft tumors (Western blot, IHC); format: in vivo; conditions: GTL-16 tumors, single 75 mg/kg dose i.v.
Method: (§1) The in vivo study was carried out in strict accordance with Swiss law for animal protection and was approved by the Swiss Cantonal Veterinary Office of Basel-Stadt. GTL-16 (4×10^6) and A375 cells (5×10^6) were inoculated subcutaneously in the right flank in 200 μl Hanks' balanced salt solution (HBSS) or PBS, respectively. Invasive procedures were performed under Forene anesthesia. All experiments were performed in female Harlan HsdNpa: Athymic Nude-nu mice (Laboratory Animal Services, Novartis Pharma AG, Basel). The animals were kept under optimized hygienic conditions with 12 hr dark, 12 hr light conditions. The animals were fed food and water ad libitum. A single 75 mg/kg and 50 mg/kg dose of Hsp90 inhibitor, NVP-AUY922 was administered to the GTL-16 and A375 tumor-bearing mice, when tumors had reached a mean volume of 200 mm^3-500 mm^3 in size. Mice in the control group were injected with the vehicle (D5W). Serum was isolated and tumors dissected over the time course 0-168 hr. Tumors were cut in two halves. One half was paraffin embedded and the other snap frozen, and stored at −80° C.
(§2) Total protein lysates were prepared from the GTL-16 and A375 cells with RIPA lysis buffer (Upstate, Millipore Corporation, Charlottesville, Va., USA). […] Proteins were quantified by bicinchoninic acid assay (Pierce Biotechnology, Rockford, Ill., USA) for Western blotting. […]

A375 tumor-bearing mice = test: Hsp70 expression in A375 xenograft tumors; format: in vivo; conditions: single 50 mg/kg dose i.v.
Method: as §1, §2

CCNC(=O)c1noc(-c2cc(C(C)C)c(O)cc2O)c1-c1ccc(CN2CCOCC2)cc1 [NVP-AUY922, 5-(2,4-Dihydroxy-5-isopropyl-phenyl)-4-(4-morhpolin-4-ylmethyl-phenyl)-isoxazole-3-carboxylic acid ethylamide]
IL-8 mRNA levels lower in treated versus untreated cells (A375 cells): 95% | change in nuclear NFκB p65 levels (GTL-16 cells): −26% | decrease in nuclear phospho-c-Jun levels (GTL-16 cells): ~83% | earliest time post-treatment at which Hsp70 is induced in tumor [1]: 6 h | stable Hsp70 induction in tumor up to [1]: 48 h | Hsp70 induction in tumor compared with GTL-16 model (A375 tumor-bearing mice): same pattern of Hsp70 induction
